# Legend:
# [1] = tested on: Respiratory syncytial virus recombinant with luciferase (RSV-Luc5); assay: NHBE RSV-Luc5 384-well assay (EC50 RSVFLUC NHBE-384); assay type: cell-based; details: human respiratory syncytial virus, 72 h, read-out: EC50 RSV FLUC NHBE 384 V2 (per Ex. U)
# Excerpt: Example U. NHBE RSV-Luc5 384-Well Assay (EC50 RSVFLUC NHBE-384)
# Normal Human Bronchial Epithelial (NHBE) cells were purchased from Lonza (Walkersville, MD Cat #CC2540) and maintained in BEGM Bronchial Epithelial Cell Growth Medium BulletKit (Lonza CC-3170).
# Cells were thawed, expanded, and were used for experiments at passage 2. Respiratory syncytial virus recombinant with luciferase (RSV-Luc5) (≥1×107 Infectious Units/ml (IU/ml) determined by TCID50) was purchased from Microbiologics (Saint Cloud, MN). Viral replication was determined in NHBE cells in the following manner.
# Compounds are prepared in 100% DMSO in 384-well polypropylene plates (Greiner, Monroe, NC, Cat #784201) with 8 compounds per plate in grouped replicates of 4 at 10 serially diluted concentrations (1:3). The serially diluted compounds were transferred to low dead volume Echo plates (Labcyte, Sunnyvale, CA, Cat #LP-0200).
# The test compounds were spotted to 384-well assay plates (Greiner, Monroe, NC, Cat #781091) at 200 nL per well. NHBE cells were harvested and suspended in BEGM Bronchial Epithelial Cell Growth Medium BulletKit and seeded to the pre-spotted assay plates at 5,000 cells per well in 30 μL. RSV-Luc5 virus was diluted in BEGM Bronchial Epithelial Cell Growth Medium BulletKit at 500,000 Infectious Units (IU) per mL and 10 μL per well was added to the assay plates containing cells and compounds, for an MOI of 1. The assay plates were incubated for 3 days at 37° C. and 5% CO2. At the end of incubation, One-Glo reagent (Promega, Madison, WI, Cat #E6120) was prepared. The assay plates and One-Glo reagent were equilibrated to room temperature for at least 15 minutes. 40 μL per well of One-Glo reagent was added and the plates were incubated at room temperature for 15 minutes before reading the luminescence signal on an En Vision multimode plate reader (Perkin Elmer, Waltham, MA). Remdesivir was used as positive control and DMSO was used as negative control. Values were normalized to the positive and negative controls (as 0% and 100% replication, respectively) and data was fitted using non-linear regression analysis by Gilead's dose response tool. The EC50 value for each compound was defined as the concentration reducing the viral replication by 50%.
# RSV strain A2 = assay: RSV Cellomics assay for RSV A2 antiviral activity (EC50-RSV-Hep2-96-Cellomics); assay type: cell-based; details: human respiratory syncytial virus, HEp-2, 72 h; Hep2 cells, RSV strain A2, MOI=0.05, 3 days, RSV F protein immunofluorescence; read-out: EC50-RSV-HEp2-96-Cellomics Example B1
# Description: Example B1: RSV Cellomics Assay for RSV A2 Antiviral Activity (EC50-RSV-Hep2-96-Cellomics)
# 8×10^3 Hep2 cells are seeded into 96 well plates in 100 μL of media (DMEM supplemented with GlutaMAX, 10% FBS and Pen/Strep) and briefly spun at 50×g for 1 minute to attach cells. Cells were further allowed to attach with overnight incubation at 37° C.+5% CO2. The following day, the media was aspirated and 100 μL of fresh DMEM media containing 2% FBS was added. A three-fold dilution series of compounds of interest are then added to the plate using the Tecan D300e dispenser and the plate is normalized to the well with the highest volume of DMSO. The cells are next infected by adding 100 μL of media containing RSV strain A2 at an MOI=0.05 and the plates incubated for 3 days at 37° C.+5% CO2. Following the incubation, the media is removed, and the cells are washed once with 250 μL PBS and fixed with 250 μL ice-cold 100% methanol for 10 minutes at 4 C. The methanol is then removed and the plates air dried for 5 minutes and then washed once with 250 μL PBS to remove any residual methanol. The wells are then blocked 60 μL/well of BlockAid (B10710, Thermo-Fisher) for 1 hour at RT on rocker at which point the blocking buffer is carefully aspirated. Primary antibody against the RSV F protein (MAB 858-1) is then diluted 1:2000 in SuperBlock (37515, Thermo Fisher) and 50 μL of the primary antibody solution is added to each well. The plates are incubated at room temperature for 1 hour with gentle agitation and then washed with 250 μL of PBS-Tween 3 times. A goat anti-mouse AlexaFluor 647 conjugated secondary antibody (Sigma, A21235) is then diluted 1:2000 and Hoescht 33342 (H3570) at 1:1000 in SuperBlock and 50 μL added to the wells for 1 hour at 37° C. After incubation the antibody solution is aspirated, and the wells are then washed with 250 μL of PBS-Tween 3 times. To keep cells from drying out, 100 μL of PBS is added to each well and the plates are sealed with black plate seal. Fluorescence at the 647 nm wavelength is measured using a Cellomics CellInsight CX7 machine. Compound activity is determined as a percentage of the % positive cells (or average intensity) compared to DMSO treated RSV infected well controls following subtraction of uninfected controls. The EC50 values are then calculated using nonlinear regression analysis in GraphPad Prism.
Structure (SMILES),EC50 [1],EC50 (RSV strain A2)
"N#Cc1cc(F)cc(CO[C@H](CCCCCCCCCCCCCCCCCC(F)(F)F)COP(=O)(O)OC[C@@]2(C#N)O[C@@H](c3ccc4c(N)ncnn34)[C@H](O)[C@@H]2O)c1 [Compound 10, ((2R,3S,4R,5S)-5-(4-aminopyrrolo[2,1-f][1,2,4]triazin-7-yl)-2-cyano-3,4-dihydroxytetrahydrofuran-2-yl)methyl ((R)-2-((3-cyano-5-fluorobenzyl)oxy)-20,20,20-trifluoroicosyl) hydrogen phosphate]",117 nM,127 nM
"CN(C)CCNc1cccc(CO[C@@H](CCCCCCCCCCCCCCCCCC(F)(F)F)COP(=O)(O)OC[C@@]2(C#N)O[C@@H](c3ccc4c(N)ncnn34)[C@H](O)[C@@H]2O)c1 [Compound 11, ((2R,3S,4R,5S)-5-(4-aminopyrrolo[2,1-f][1,2,4]triazin-7-yl)-2-cyano-3,4-dihydroxytetrahydrofuran-2-yl)methyl ((S)-2-((3-((2-(dimethylamino)ethyl)amino)benzyl)oxy)-20,20,20-trifluoroicosyl) hydrogen phosphate]",4590 nM,12600 nM
"N#Cc1cc(F)cc(CO[C@H](CCCCCCCCCCCCCCCCC(F)F)COP(=O)(O)OC[C@@]2(C#N)O[C@@H](c3ccc4c(N)ncnn34)[C@H](O)[C@@H]2O)c1 [Compound 4, ((2R,3S,4R,5S)-5-(4-aminopyrrolo[2,1-f][1,2,4]triazin-7-yl)-2-cyano-3,4-dihydroxytetrahydrofuran-2-yl)methyl ((R)-2-((3-cyano-5-fluorobenzyl)oxy)-19,19-difluorononadecyl) hydrogen phosphate]",107 nM,170 nM
"N#Cc1cc(F)cc(CO[C@H](CCCCCCCCCCCCCCCCCCCC(F)(F)F)COP(=O)(O)OC[C@@]2(C#N)O[C@@H](c3ccc4c(N)ncnn34)[C@H](O)[C@@H]2O)c1 [Compound 8, ((2R,3S,4R,5S)-5-(4-aminopyrrolo[2,1-f][1,2,4]triazin-7-yl)-2-cyano-3,4-dihydroxytetrahydrofuran-2-yl)methyl ((R)-2-((3-cyano-5-fluorobenzyl)oxy)-22,22,22-trifluorodocosyl) hydrogen phosphate]",134 nM,237 nM
"N#Cc1cc(F)cc(CO[C@@H](CCCCCCCCCCCCCCCCC(F)(F)F)COP(=O)(O)OC[C@@]2(C#N)O[C@@H](c3ccc4c(N)ncnn34)[C@H](O)[C@@H]2O)c1 [Compound 6, ((2R,3S,4R,5S)-5-(4-aminopyrrolo[2,1-f][1,2,4]triazin-7-yl)-2-cyano-3,4-dihydroxytetrahydrofuran-2-yl)methyl ((S)-2-((3-cyano-5-fluorobenzyl)oxy)-19,19,19-trifluorononadecyl) hydrogen phosphate]",86 nM,293 nM
"N#Cc1cc(F)cc(CO[C@@H](CCCCCCCCCCCCCCCCCC(F)(F)F)COP(=O)(O)OC[C@@]2(C#N)O[C@@H](c3ccc4c(N)ncnn34)[C@H](O)[C@@H]2O)c1 [Compound 3, ((2R,3S,4R,5S)-5-(4-aminopyrrolo[2,1-f][1,2,4]triazin-7-yl)-2-cyano-3,4-dihydroxytetrahydrofuran-2-yl)methyl ((S)-2-((3-cyano-5-fluorobenzyl)oxy)-20,20,20-trifluoroicosyl) hydrogen phosphate]",44 nM,421 nM
"N#C[C@]1(COP(=O)(O)OC[C@H](CCCCCCCCCCCCCCCCCC(F)(F)F)OCc2ccc3ccccc3n2)O[C@@H](c2ccc3c(N)ncnn23)[C@H](O)[C@@H]1O [Compound 7, ((2R,3S,4R,5S)-5-(4-aminopyrrolo[2,1-f][1,2,4]triazin-7-yl)-2-cyano-3,4-dihydroxytetrahydrofuran-2-yl)methyl ((S)-20,20,20-trifluoro-2-(quinolin-2-ylmethoxy)icosyl) hydrogen phosphate]",714 nM,1400 nM
"COc1cc(C#N)ccc1CO[C@@H](CCCCCCCCCCCCCCCCCC(F)(F)F)COP(=O)(O)OC[C@@]1(C#N)O[C@@H](c2ccc3c(N)ncnn23)[C@H](O)[C@@H]1O [Compound 9, ((2R,3S,4R,5S)-5-(4-aminopyrrolo[2,1-f][1,2,4]triazin-7-yl)-2-cyano-3,4-dihydroxytetrahydrofuran-2-yl)methyl ((S)-2-((4-cyano-2-methoxybenzyl)oxy)-20,20,20-trifluoroicosyl) hydrogen phosphate]",265 nM,215 nM
"N#C[C@]1(COP(=O)(O)OCCCCCCCCCCCCCCCCCCCC(F)(F)F)O[C@@H](c2ccc3c(N)ncnn23)[C@H](O)[C@@H]1O [Compound 5, ((2R,3S,4R,5S)-5-(4-aminopyrrolo[2,1-f][1,2,4]triazin-7-yl)-2-cyano-3,4-dihydroxytetrahydrofuran-2-yl)methyl (20,20,20-trifluoroicosyl) hydrogen phosphate]",4460 nM,3420 nM
